Test results from patent US20150011528A1, “PHENYLIMIDE-CONTAINING BENZOTHIAZOLE DERIVATIVE OF ITS SALT AND PHARMACEUTICAL COMPOSITION COMPRISING THE SAME” (YUHAN CORPORATION, priority 2011, published 2015).

Columns and labels:
Assay type in all cases: cell-based
[1] = target: T1, interaction between the KRS protein and the laminin receptor (LR) (Homo sapiens, UniProt Q15046); assay: Yeast Two Hybrid inhibition of the interaction between the KRS protein and the laminin receptor (LR); conditions: 1 μL of 20 mM DMSO solution per 200 μL culture; 30° C., 6 days; absorbance 540 nm; non-treated control = 100%
T1 construct: expressed in transfected cells; host or cells: yeast EGY/SH cells
T1 sequence (Q15046 whole entry): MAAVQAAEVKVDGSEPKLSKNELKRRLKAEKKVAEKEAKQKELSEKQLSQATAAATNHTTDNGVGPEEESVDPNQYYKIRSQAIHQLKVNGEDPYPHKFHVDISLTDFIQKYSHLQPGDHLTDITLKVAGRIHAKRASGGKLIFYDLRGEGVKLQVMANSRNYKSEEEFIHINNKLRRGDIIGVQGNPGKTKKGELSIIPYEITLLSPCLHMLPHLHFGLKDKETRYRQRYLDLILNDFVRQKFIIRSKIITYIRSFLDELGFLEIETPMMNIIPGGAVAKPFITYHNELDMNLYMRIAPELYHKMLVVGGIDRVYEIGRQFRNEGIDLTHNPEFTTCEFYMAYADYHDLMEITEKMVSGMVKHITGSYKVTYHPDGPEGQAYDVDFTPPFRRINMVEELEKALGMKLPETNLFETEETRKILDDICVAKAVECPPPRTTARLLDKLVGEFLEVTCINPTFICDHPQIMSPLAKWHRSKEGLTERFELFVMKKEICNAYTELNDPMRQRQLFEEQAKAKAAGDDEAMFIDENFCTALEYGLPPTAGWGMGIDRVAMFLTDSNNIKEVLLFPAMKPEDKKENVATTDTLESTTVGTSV
Experimental: The inhibitory activity against the interaction between the KRS protein and the laminin receptor (LR) was evaluated according to the Yeast Two Hybrid method described in WO2011/056021. According to the disclosures of WO2011/056021, we prepared a vector obtained by cloning the KRS gene in the LexA vector (Clontech) and a vector obtained by cloning the LR gene in the B42 vector (Clontech). The yeast cells, i.e., EGY/SH cells were co-transformed with the LexA-KRS vector and the B42-LR vector. The co-transformation was carried out using the Yeastmaker yeast transformation system2 kit (Clontech), according to the manufacturer's instruction. […] The cultured yeast cells were diluted with the said galactose medium, until the absorbance at 540 nm attains to about 0.15 to 0.2. The diluted culture (200 μL), containing the yeast cells, was added to each well of a 96-well plate. Each test compound was dissolved in dimethyl sulfoxide at a concentration of 20 mM and then the resulting solutions (1 μL) were added to each well. The plate was cultured at 30° C. for 6 days and then the absorbance of the each well was measured at 540 nm.
(§1) And also, specificity of the inhibitory activity was evaluated, using the yeast cells cotransformed with the LexA-KRS vector and the B42-AIMP2 vector; and the yeast cells co-transformed with the LexA-KRS vector and the B42-AIMP3 vector, which were respectively prepared according to WO2011/056021. The co-transformation was carried out using the Yeastmaker yeast transformation system2 kit (Clontech), according to the manufacturer's instruction. […] The cultured yeast cells were diluted with the said galactose medium, until the absorbance at 540 nm attains to about 0.15 to 0.2. The diluted culture (200 μL), containing the yeast cells, was added to each well of a 96-well plate. Each test compound was dissolved in dimethyl sulfoxide at a concentration of 20 mM and then the resulting solutions (1 μL) were added to each well. The plate was cultured at 30° C. for 6 days and then the absorbance of each well was measured at 540 nm. The respective yeast cell proliferation rates (%) in the treated samples were calculated in comparison with those of the non-treated control (100%) and the results thereof are shown in Table 1 below.
When KRS is bound to LR, the trans-activation domain is come close to the DNA-binding domain and the genes for synthesizing essential amino acids are expressed, which leads to normal growth of the transformed yeasts, thereby increasing the absorbance.

[2] = target: T2, binding between KRS and AIMP3 (Homo sapiens, UniProt Q15046); assay: Yeast Two Hybrid specificity test, LexA-KRS / B42-AIMP3 co-transformed yeast cells; conditions: 1 μL of 20 mM DMSO solution per 200 μL culture; 30° C., 6 days; absorbance 540 nm; non-treated control = 100%
T2 construct: expressed in transfected cells; host or cells: yeast cells (co-transformed)
T2 sequence (Q15046 whole entry): as above
Experimental: as §1

[3] = tested on: A549 cells; assay: Cell Migration Assay (transwell, laminin); conditions: Homo sapiens, laminin 10 μg/mL in lower well, test compounds 0.39˜100 μM, 6 hours at 37° C.
Experimental: Cell migration was measured with a 24-well transwell having a polycarbonate membrane (8.0 μm pore size, Costar) at the bottom of the upper chamber. Each lower well was treated with laminin (10 μg/mL) and test compounds (0.39˜100 μM) along with a serum-free RPMI1640 medium. A549 cells (Korean Cell Line Bank) were suspended in a serum-free RPMI1640 medium at a concentration of 1×10^6 cells/mL and then the test compounds were added thereto at the indicated concentrations. Each resulting solution (100 μL) was added to the upper chamber. The cells were cultured at 37° C. for 6 hours in a CO2 incubator. The upper chamber was taken out and then the cells were fixed with PBS containing 70% methyl alcohol for 10 minutes, followed by washing with PBS twice. The cells were stained with hematoxylin (Sigma) for 10 minutes and then washed with distilled water. The non-migrated cells were removed from the upper portion of the polycarbonate membrane with a cotton swab. The membranes were excised and separated from the chamber, and then mounted to a slide using a gel mount reagent (Biomeda, USA). The migrated cells (attached to the lower face of the membrane) were counted at three randomly selected sites under a microscope (×20). The cell counting was performed with the Image J program. From the counted cell numbers, each IC50 value was calculated by non-linear regression curve fit using the “GraphPad Prism” program.
The cells are pulled by laminin residing in the lower chamber and then passed through the polycarbonate membrane, so as to attach to the lower face of the membrane.

[4] = target: T3, binding between KRS and AIMP2 (Homo sapiens, UniProt Q15046); assay: Yeast Two Hybrid specificity test, LexA-KRS / B42-AIMP2 co-transformed yeast cells; conditions: 1 μL of 20 mM DMSO solution per 200 μL culture; 30° C., 6 days; absorbance 540 nm; non-treated control = 100%
T3 construct: expressed in transfected cells; host or cells: yeast cells (co-transformed)
T3 sequence (Q15046 whole entry): as above
Experimental: as §1

Yeast cell proliferation rates KRS-LR (%) [1] [%]	Yeast cell proliferation rates KRS-AIMP3 (%) [2] [%]	IC50 [3] [µM]	Yeast cell proliferation rates KRS-AIMP2 (%) [4] [%]	SMILES
31.5	102.1	18.9	79.4	CCC(C(=O)O)n1c(=NC(=O)c2cccc(Cl)c2)sc2ccccc21 (centres unmarked) [Example 139, 2-[2-(3-chlorobenzoylimino)benzo[d]thiazol-3(2H)-yl]butanoic acid]
15.9	105.4	6.5	100.2	CCC(C(=O)O)n1c(=NC(=O)c2cccc(Cl)c2)sc2c(Cl)cccc21 (centres unmarked) [Example 310, 2-(7-chloro-2-((3-chlorobenzoyl)imino)benzo[d]thiazol-3(2H)-yl)butanoic acid]
12.6	107.2	81.3	104.0	CCC(C(=O)O)n1c(=NC(=O)c2cccc(Cl)c2)sc2c(F)c(F)ccc21 (centres unmarked) [Example 338, 2-(2-((3-chlorobenzoyl)imino)-6,7-difluorobenzo[d]thiazol-3(2H)-yl)butanoic acid]
31.7	80.8	29.6	97.7	CCC(C(=O)O)n1c(=NC(=O)c2cccc(Cl)c2)sc2cc(C)ccc21 (centres unmarked) [Example 59, 2-{2-[(3-chlorobenzoyl)imino]-6-methylbenzo[d]thiazol-3(2H)-yl}butanoic acid]
33.2	102.7	17.6	88.5	CCC(C(=O)O)n1c(=NC(=O)c2ccc(C)cc2)sc2c(F)cccc21 (centres unmarked) [Example 93, 2-[7-fluoro-2-(4-methylbenzoylimino)benzo[d]thiazol-3(2H)-yl]butanoic acid]
41.4	105.3	22	106.0	CCOc1ccc2c(c1)sc(=NC(=O)c1cccc(Cl)c1)n2C(C)C(=O)O (centres unmarked) [Example 55, 2-{2-[(3-chlorobenzoyl)imino]-6-ethoxybenzo[d]thiazol-3(2H)-yl}propionic acid]
15.6	104.6	78	99.9	Cc1ccc2c(sc(=NC(=O)c3cccc(Cl)c3)n2C(C)C(=O)O)c1F (centres unmarked) [Example 424, 2-(2-((3-chlorobenzoyl)imino)-7-fluoro-6-methylbenzo[d]thiazol-3(2H)-yl)propionic acid]
11.6	99.1	25.4	108.2	CC(C(=O)O)n1c(=NC(=O)c2cccc(Cl)c2)sc2c(F)c(Cl)ccc21 (centres unmarked) [Example 385, 2-(6-chloro-2-((3-chlorobenzoyl)imino)-7-fluorobenzo[d]thiazol-3(2H)-yl)propionic acid]
11.2	106.3	8.3	103.9	CCC(C(=O)O)n1c(=NC(=O)c2cccc(Cl)c2)sc2c(F)c(Cl)ccc21 (centres unmarked) [Example 386, 2-(6-chloro-2-((3-chlorobenzoyl)imino)-7-fluorobenzo[d]thiazol-3(2H)-yl)butanoic acid]
30.2	98.2	57	102.0	Cc1ccc(C(=O)N=c2sc3c(Cl)cccc3n2C(C)C(=O)O)cc1 (centres unmarked) [Example 109, 2-[7-chloro-2-(4-methylbenzoylimino)benzo[d]thiazol-3(2H)-yl]propionic acid]

The next lines start with the compound.

SMILES	Yeast cell proliferation rates KRS-LR (%) [1] [%]	Yeast cell proliferation rates KRS-AIMP3 (%) [2] [%]	IC50 [3] [µM]	Yeast cell proliferation rates KRS-AIMP2 (%) [4] [%]
CC(C(=O)O)n1c(=NC(=O)c2cccc(Cl)c2)sc2cc(C(F)(F)F)ccc21 (centres unmarked) [Example 172, 2-(2-((3-chlorobenzoyl)imino)-6-(trifluoromethyl)benzo[d]thiazol-3(2H)-yl)propionic acid]	36.3	104.1	37.9	90.0
CCC(C(=O)O)n1c(=NC(=O)c2ccc(C(F)(F)F)cc2)sc2ccccc21 (centres unmarked) [Example 64, 2-{2-[4-(trifluoromethyl)benzoylimino]benzo[d]thiazol-3(2H)-yl}butanoic acid]	28.8	104.1	20.1	99.2
O=C(O)Cn1c(=NC(=O)c2cccc(Cl)c2)sc2ccc(Cl)cc21 [Example 312, 2-(5-chloro-2-(3-chlorobenzoylimino)benzo[d]thiazol-3(2H)-yl)acetic acid]	14.6	99.0	36	89.6
CCC(C(=O)O)n1c(=NC(=O)c2ccc(C)cc2)sc2cc(C(F)(F)F)ccc21 (centres unmarked) [Example 155, 2-[2-(4-methylbenzoylimino)-6-(trifluoromethyl)benzo[d]thiazol-3(2H)-yl]butanoic acid]	29.7	100.0	16.7	102.4
CCC(C(=O)O)n1c(=NC(=O)c2cccc(C(F)(F)F)c2)sc2ccccc21 (centres unmarked) [Example 142, 2-[2-(3-(trifluoromethyl)benzoylimino)benzo[d]thiazol-3(2H)-yl]butanoic acid]	39.4	106.5	14.7	95.0
CC(C(=O)O)n1c(=NC(=O)c2cccc(C(F)(F)F)c2)sc2ccccc21 (centres unmarked) [Example 133, 2-{2-[3-(trifluoromethyl)benzoylimino]benzo[d]thiazol-3(2H)-yl}propionic acid]	33.2	92.8	11.4	82.1
CC(C(=O)O)n1c(=NC(=O)c2cccc(C(F)(F)F)c2)sc2c(F)cc(F)cc21 (centres unmarked) [Example 458, 2-(5,7-difluoro-2-((3-(trifluoromethyl)benzoyl)imino)benzo[d]thiazol-3(2H)-yl)propionic acid]	30.8	100.0	61	96.4
